Results as given in ChEMBL document CHEMBL1201862, “PubChem BioAssay data set” (2004).
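96-well plates; 48 h exposure; 5 concentrations. Endpoints by linear interpolation between flanking doses. Not reached: highest tested concentration assigned. GI50 is the concentration that inhibits growth by half.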 Active and inactive are the calls of the source. Cut-off read from the data, not from the text of the source: active = GI50 up to about 1.1 µM and inactive = higher.

Assays:
Assay in all cases: NCI tumour cell line growth inhibition, 48 h
[1] = tested on: OVCAR-8
[2] = tested on: HL-60
[3] = tested on: HCC 2998
[4] = tested on: COLO 205
[5] = tested on: SK-OV-3
[6] = tested on: SK-MEL-5
[7] = tested on: SF-539
[8] = tested on: MOLT-4
[9] = tested on: LOX IMVI
[10] = tested on: A498
[11] = tested on: 786-0
[12] = tested on: OVCAR-4
[13] = tested on: HOP-62
[14] = tested on: SK-MEL-2
[15] = tested on: OVCAR-5

Measured: GI50

COC12OCCN(C)C1=CC(=O)C1=NNC(C)C12 (centres undefined)
inactive: [1] > 100 µM | [2] > 100 µM | [3] > 100 µM | [4] > 100 µM | [5] > 100 µM | [6] > 100 µM | [7] > 100 µM | [8] > 100 µM | [9] > 100 µM | [10] > 100 µM | [11] > 100 µM

CCOC1=C2N=C(Cc3ccccc3F)N=C2C(=O)c2ccccc21
inactive: [12] > 100 µM | [1] > 100 µM | [2] > 100 µM | [13] > 100 µM | [3] > 100 µM | [4] > 100 µM | [14] > 100 µM | [7] > 100 µM | [8] > 100 µM | [11] > 100 µM

O=C1CCC(c2nc3ccccc3o2)C(=O)N1 (centres undefined)
inactive: [12] > 100 µM | [1] > 100 µM | [2] > 100 µM | [13] > 100 µM | [3] > 100 µM | [4] > 100 µM | [5] > 100 µM | [14] > 100 µM | [6] > 100 µM | [7] > 100 µM | [8] > 100 µM | [9] > 100 µM | [10] > 100 µM | [11] > 100 µM

COc1ccc(C=C(c2ccc(OCc3ccccc3)cc2)c2ccc(OCc3ccccc3)cc2)cc1
inactive: [12] > 100 µM | [1] > 100 µM | [2] > 100 µM | [13] > 100 µM | [3] > 100 µM | [15] > 100 µM | [4] > 100 µM | [5] > 100 µM | [14] > 100 µM | [6] > 100 µM | [7] > 100 µM | [9] > 100 µM | [11] > 100 µM

CCCCCCCCCCn1cccc1/C=C/c1ccc(/C=C/c2cccn2CCCCCCCCCC)cc1
inactive: [12] > 100 µM | [1] > 100 µM | [2] > 100 µM | [13] > 100 µM | [3] > 100 µM | [15] > 100 µM | [4] > 100 µM | [5] > 100 µM | [6] > 100 µM | [7] > 100 µM | [9] > 100 µM | [10] > 100 µM | [11] > 100 µM

N#CC1(CCCCl)CCCCC1
inactive: [1] > 100 µM | [2] > 100 µM | [3] > 100 µM | [15] > 100 µM | [4] > 100 µM | [5] > 100 µM | [14] > 100 µM | [6] > 100 µM | [7] > 100 µM | [8] > 100 µM | [9] > 100 µM | [10] > 100 µM | [11] > 100 µM

O=C(O)c1cc(S(=O)(=O)N/N=C\c2c3ccccc3[n+]([O-])c3ccccc23)ccc1O
inactive: [12] 5.18 µM | [1] 12.7 µM | [2] 4.07 µM | [13] 7.48 µM | [3] 6.97 µM | [15] 30.7 µM | [4] 15.1 µM | [5] 38.3 µM | [14] 16.9 µM | [6] 11.7 µM | [8] 3.8 µM | [9] 8 µM | [10] 14.1 µM | [11] 11.7 µM

COc1ccc(Nc2nc3cc(C(F)(F)F)ccc3nc2-c2ccccc2)cc1OC
inactive: [12] 24 µM | [1] 25.8 µM | [13] 2.74 µM | [3] > 100 µM | [15] > 100 µM | [4] 29.3 µM | [5] 15.9 µM | [14] 48.9 µM | [6] 20.3 µM | [7] 39.5 µM | [8] > 100 µM | [9] 19.8 µM | [10] 52.1 µM | [11] 41.8 µM

O=C1c2ccccc2C(=O)C1C(c1ccc(F)cc1)C1C(=O)c2ccccc2C1=O
inactive: [12] > 100 µM | [1] > 100 µM | [2] 37.8 µM | [13] > 100 µM | [3] > 100 µM | [15] > 100 µM | [4] > 100 µM | [5] > 100 µM | [14] > 100 µM | [6] > 100 µM | [7] > 100 µM | [8] 59.4 µM | [9] 25.9 µM | [11] > 100 µM

N#C/C(=C\c1cc(O)ccc1O)C(N)=O
inactive: [12] 54 µM | [1] 50.6 µM | [2] 14 µM | [13] > 100 µM | [3] 67.3 µM | [15] > 100 µM | [4] 33.3 µM | [5] 67.6 µM | [14] 42.5 µM | [7] 50.7 µM | [8] 27 µM | [10] 41 µM | [11] 29.4 µM

Cc1cc(C)nc(NS(=O)(=O)c2ccc(Nc3c4ccccc4nc4c(C(=O)Nc5ccc(S(=O)(=O)Nc6cc(C)on6)cc5)ccc(Cl)c34)cc2)n1
inactive: [12] 28.6 µM | [1] 26.4 µM | [13] 21.5 µM | [3] 17.3 µM | [15] 18.7 µM | [5] 69.7 µM | [7] 21.5 µM | [8] 19.5 µM | [9] 22.2 µM | [10] 17.2 µM | [11] 17.9 µM

CCCCCCCCCCCc1cc(=O)c2c(O)cccc2o1
inactive: [12] > 100 µM | [1] > 100 µM | [2] 30.5 µM | [13] > 100 µM | [3] 66.2 µM | [15] 88.7 µM | [4] > 100 µM | [5] > 100 µM | [14] 24.1 µM | [6] 44.8 µM | [7] > 100 µM | [8] 30.3 µM | [9] 37.5 µM | [11] > 100 µM

NC(CCCNCc1ccccc1)C(=O)O (centres undefined)
inactive: [12] > 100 µM | [1] > 100 µM | [2] > 100 µM | [13] > 100 µM | [4] > 100 µM | [5] > 100 µM | [14] > 100 µM | [6] > 100 µM | [7] > 100 µM | [8] > 100 µM | [9] > 100 µM | [10] > 100 µM | [11] > 100 µM

C=CCOC(C)n1c(C)c(Br)c(=O)[nH]c1=O (centres undefined)
inactive: [1] > 100 µM | [2] > 100 µM | [3] > 100 µM | [15] > 100 µM | [4] > 100 µM | [5] 65.2 µM | [14] > 100 µM | [6] > 100 µM | [7] > 100 µM | [8] > 100 µM | [9] > 100 µM | [10] > 100 µM | [11] > 100 µM

C/C(=N\NS(=O)(=O)c1ccc(C)cc1)C(CN1CCCCC1)C(c1ccccc1)c1c(O)c2ccccc2oc1=O (centres undefined)
inactive: [12] > 100 µM | [1] > 100 µM | [2] > 100 µM | [13] > 100 µM | [3] > 100 µM | [15] > 100 µM | [4] > 100 µM | [5] > 100 µM | [14] > 100 µM | [6] > 100 µM | [7] > 100 µM | [9] > 100 µM | [10] > 100 µM | [11] > 100 µM
